From patent US11512053B2, “Arginine methyltransferase inhibitors and uses thereof” (priority 2013, dated 2022)
Where a name gives a salt, the structure may show the parent alone. Read-outs that look alike come from different tables or passages of the source.

Columns and labels:
[1] = target: full-length human PRMT8 isoform 1 (Homo sapiens, UniProt Q9NR22); experiment: PRMT8 Biochemical Assay (3H-SAM Flashplate, peptide substrate); details: read-out: Biochemical IC50 PRMT8
Summary of the method: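 Full-length human PRMT8 (1.5 nM, E. coli-expressed, GST removed) preincubated 30 min at room temperature with compound, then reacted with 50 nM 3H-SAM plus 550 nM cold SAM and 150 nM biotinylated H4 31-45 peptide in 20 mM Bicine pH 7.6, 1 mM TCEP, 0.005% BSG, 0.002% Tween 20, 2% DMSO. Quenched with 400 uM cold SAM; labelled peptide captured on streptavidin Flashplate, % inhibition versus 1 mM SAH and DMSO controls fitted to 4- or 3-parameter curve.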

[2] = target: full-length human PRMT1 isoform 1 (GST-tagged) (Homo sapiens, UniProt Q99873); experiment: PRMT1 Biochemical Assay (3H-SAM Flashplate, peptide substrate)
Sequence of full-length human PRMT1 isoform 1 (GST-tagged) (Q99873 with tags, fused parts or gaps): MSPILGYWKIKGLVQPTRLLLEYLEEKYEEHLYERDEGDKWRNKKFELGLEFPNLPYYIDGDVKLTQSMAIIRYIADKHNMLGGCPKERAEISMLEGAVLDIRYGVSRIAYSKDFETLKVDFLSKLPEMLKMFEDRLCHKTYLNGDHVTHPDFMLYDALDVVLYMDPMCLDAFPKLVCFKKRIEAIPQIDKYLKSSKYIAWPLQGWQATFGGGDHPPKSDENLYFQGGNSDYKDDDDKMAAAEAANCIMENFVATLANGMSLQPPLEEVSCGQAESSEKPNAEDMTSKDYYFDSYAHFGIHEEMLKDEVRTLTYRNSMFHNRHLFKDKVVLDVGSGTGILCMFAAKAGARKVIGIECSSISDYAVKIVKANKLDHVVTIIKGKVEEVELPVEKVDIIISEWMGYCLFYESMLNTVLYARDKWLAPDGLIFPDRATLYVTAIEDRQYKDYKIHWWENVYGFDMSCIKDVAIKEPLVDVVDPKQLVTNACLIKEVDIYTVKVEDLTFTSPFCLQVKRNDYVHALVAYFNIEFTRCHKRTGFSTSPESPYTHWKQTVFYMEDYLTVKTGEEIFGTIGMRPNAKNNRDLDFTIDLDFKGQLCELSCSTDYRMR
Summary of the method: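 GST-tagged full-length PRMT1 from baculovirus-infected cells, preincubated 30 min at room temperature with compound in 20 mM Bicine pH 7.6, TCEP, BSG, Tween 20. Reaction started with 3H-SAM plus biotinylated peptide, stopped with 300 uM unlabelled SAM. Streptavidin Flashplate capture and scintillation counting; % inhibition curve-fitted for IC50.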

[3] = single experiment or average of multiple experiments

Sequence of full-length human PRMT8 isoform 1 (Q9NR22 whole entry, canonical isoform): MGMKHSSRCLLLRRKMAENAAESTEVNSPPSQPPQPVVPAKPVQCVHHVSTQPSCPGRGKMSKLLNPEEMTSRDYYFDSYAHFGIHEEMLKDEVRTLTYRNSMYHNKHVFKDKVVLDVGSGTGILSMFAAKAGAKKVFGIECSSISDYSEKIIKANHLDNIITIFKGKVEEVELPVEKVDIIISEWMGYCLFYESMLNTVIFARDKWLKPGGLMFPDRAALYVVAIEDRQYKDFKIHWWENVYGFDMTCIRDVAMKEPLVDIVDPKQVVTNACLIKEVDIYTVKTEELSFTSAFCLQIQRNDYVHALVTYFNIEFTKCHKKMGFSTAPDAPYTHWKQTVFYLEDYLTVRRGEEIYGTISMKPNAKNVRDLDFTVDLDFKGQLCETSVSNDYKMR

| Compound | IC50 [1, 3] | IC50 [2, 3] | IC50 [1] | IC50 [2] |
| --- | --- | --- | --- | --- |
| CN(CCN)Cc1n[nH]cc1C1CCCCC1 [Compound 33] | 500 nM | 20 nM | – | – |
| CNCCN(C)Cc1c[nH]nc1C1CCC(C)(C)C(C(=O)NCCCOC)C1 (stereo not drawn) [Compound 93] | 88.1 nM | 31.3 nM | < 100 nM | < 100 nM |
| CNCCN(C)Cc1c[nH]nc1C1CCN(C(=O)C(C)C)CC1 [Compound 34] | 440 nM | 20 nM | – | – |
| CNCCN(C)Cc1c[nH]nc1C1CCC(C(C)C)CC1 (stereo not drawn) [Compound 50] | 11.2 nM | 8.6 nM | – | < 100 nM |
| CNCCN(C)Cc1c[nH]nc1[C@H]1CCC(C)(C)[C@@H](C(=O)NCCCOC)C1 [Compound 270] | 204 nM | 62.5 nM | 101 to 1000 nM | < 100 nM |
| CNCCN(C)Cc1c[nH]nc1C1CCC(C)(C)CC1 [Compound 52] | 10.4 nM | 4.7 nM | – | < 100 nM |
| CNCCN(C)Cc1c[nH]nc1C1CCC(COCCOC)(COCCOC)CC1 [Compound 60] | 129 nM | 27.5 nM | – | < 100 nM |
| CN(CCN)Cc1c[nH]nc1/C=C/c1cc(F)cc(F)c1 [Compound 15] | 700 nM | 50 nM | – | – |
| CNCCN(C)Cc1ccnn1C1CCC2(CC1)CC(C)(C)CO2 (stereo not drawn) [Compound 274, trifluoroacetate] | 11.9 nM | 8.19 nM | < 100 nM | < 100 nM |
| CNCCN(C)Cc1c[nH]nc1C1CCC(Oc2ccccc2)CC1 (stereo not drawn) [Compound 67] | 11.9 nM | 7.8 nM | < 100 nM | < 100 nM |
| CNCCN(C)Cc1c[nH]nc1C1CC(C)(C)OC(C)(C)C1 [Compound 59] | 48.4 nM | 19.6 nM | – | < 100 nM |
| CNCCN(C)Cc1c[nH]nc1C1CCC2(CCCO2)CC1 (stereo not drawn) [Compound 51] | 21.4 nM | 9.4 nM | – | < 100 nM |
| CCC(CC)OC1CCC(c2n[nH]cc2CN(C)CCNC)CC1 (stereo not drawn) [Compound 70] | 24.2 nM | 9.2 nM | < 100 nM | < 100 nM |
| CN(CCN)Cc1c[nH]nc1C1CCC2(CCCC2)CC1 [Compound 45] | 5.3 nM | 2.8 nM | – | < 100 nM |
| CN(CCN)Cc1c[nH]nc1/C=C/Cc1ccccc1 [Compound 24] | 300 nM | 20 nM | – | – |
| CNCCN(C)Cc1c[nH]nc1C1CCC(C)(C)C(COCC(C)C)C1 (stereo not drawn) [Compound 95] | 18.9 nM | 9.35 nM | < 100 nM | < 100 nM |
| CNCCN(C)Cc1c[nH]nc1C1CCC(CCOC)CC1 (stereo not drawn) [Compound 55] | 24.7 nM | 12.8 nM | – | < 100 nM |
| CC(C)Cc1n[nH]cc1CN(C)CCN [Compound 28, N^1-((3-iso-butyl-1H-pyrazol-4-yl)methyl)-N^1-methylethane-1,2-diamine] | 1680 nM | 180 nM | – | – |

| Compound | IC50 [1, 3] | IC50 [2, 3] | IC50 [1] | IC50 [2] |
| --- | --- | --- | --- | --- |
| CC(C)c1n[nH]cc1CN(C)CCN [Compound 21] | 9560 nM | 1490 nM | – | – |
| CNCCN(C)Cc1c[nH]nc1C1CCC(C)(C)C(C(=O)NCC(C)C)C1 (stereo not drawn) [Compound 90] | 117 nM | 34.4 nM | 101 to 1000 nM | < 100 nM |
| CNCCN(C)Cc1c[nH]nc1C1CCC2(CCCCC2)CC1 [Compound 46] | 6.2 nM | 7.9 nM | – | < 100 nM |
| CNCCN(C)Cc1c[nH]nc1C1CCC2(CCOC2)CC1 (stereo not drawn) [Compound 54] | 24.7 nM | 8 nM | – | < 100 nM |
| CN(CCN)Cc1c[nH]nc1C1=CCOCC1 [Compound 10] | 1920 nM | 390 nM | – | – |
| CNCCN(C)Cc1c[nH]nc1[C@H]1CCC(C)(C)[C@@H](C(=O)NCCOC)C1 [Compound 268] | 210 nM | 68.6 nM | 101 to 1000 nM | < 100 nM |
| CNCCN(C)Cc1c[nH]nc1C1CC(COC)C(C)(C)C(COC)C1 (stereo not drawn) [Compound 86] | 3970 nM | 1940 nM | 3010 to 10000 nM | 1010 to 3000 nM |
| CNCCN(C)Cc1c[nH]nc1C1CCC2(CCCCC2)OC1 (stereo not drawn) [Compound 62] | 20 nM | 11.9 nM | < 100 nM | < 100 nM |
| CNCCN(C)Cc1c[nH]nc1C1CCC(OC(C)C)CC1 (stereo not drawn) [Compound 56] | 32 nM | 13.8 nM | – | < 100 nM |
| CNCCN(C)Cc1c[nH]nc1C1CCC2(CCCC2)CC1 [Compound 48] | 8.3 nM | 7.4 nM | – | < 100 nM |
| CNCCN(C)Cc1cn(C)nc1C1CCC2(CCCC2)CC1 [Compound 47] | 12.5 nM | 4.3 nM | – | < 100 nM |
| CN(CCN)Cc1c[nH]nc1C1CC1 [Compound 12] | > 10000 nM | 1580 nM | > 10000 nM | – |
| CN(CCN)Cc1c[nH]nc1CCc1ccc(F)cc1 [Compound 23, N^1-((3-(4-fluorophenethyl)-1H-pyrazol-4-yl)methyl)-N^1-methylethane-1,2-diamine] | 280 nM | 10 nM | – | – |
| CN(CCN)Cc1c[nH]nc1/C=C/c1cccc(C(F)(F)F)c1 [Compound 16] | 690 nM | 20 nM | – | – |
| COc1cc(/C=C/c2n[nH]cc2CN(C)CCN)cc(OC)c1 [Compound 11] | 250 nM | 10 nM | – | – |
| CNCCN(C)Cc1c[nH]nc1/C=C/c1ccc(OC)cc1 [Compound 7] | 520 nM | 10 nM | – | – |
| CNCCN(C)Cc1c[nH]nc1C#Cc1ccc(F)cc1 [Compound 4] | 590 nM | 20 nM | – | – |
| CNCCN(C)Cc1c[nH]nc1/C=C/c1ccc(-c2ccccc2)cc1 [Compound 5] | 420 nM | 10 nM | – | – |
